# Activity calls are given as the source filed them.
# Key:
# [1] = molecular target: T1, Polyadenylate-binding protein 1 (Homo sapiens, UniProt P11940); assay: PABP1 MLLE–PAM2 binding inhibitor potency, dose response, biochemical, fluorescence polarization, FITC-PAM2 peptide (AID 602259); assay type: functional; settings: read-out: IC50_Mean
# [2] = molecular target: T1, Polyadenylate-binding protein 1; assay: PABP1 MLLE–PAM2 interaction inhibitors, dose response, miRNA deadenylation inhibitor project, biochemical, fluorescence polarization, Cy5-PAM2 peptide, secondary (AID 602260); assay type: functional; settings: read-out: IC50_Mean
# H9c2 = assay: cells; assay type: functional, cell-based; settings: Rattus norvegicus, H9c2, Myocardium;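 also: confirmatory concentration-response retest of ultra-high-throughput screening hits for modulation of myocardial damage; cell death induced by hydrogen peroxide oxidative stress; compound pretreatment for 60 min then peroxide exposure for 2 h; potency is for protecting the cells against peroxide damage rather than for killing them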
# [3] = molecular target: FAD-linked sulfhydryl oxidase ALR (Homo sapiens, UniProt P55789); assay: inhibitors of human ALR sulfhydryl oxidase, dose response, biochemical, H2O2 detection, luminescence, cherry-pick (AID 493248)
# cells [4] = assay type: functional, cell-based
# cells [5] = assay type: functional, cell-based; remark: listed apart in the source
# [6] = cytotoxicity in HEK-293T cells, dose response, cytotoxicity control for TCR NF-kB inhibitor project, luminescence, T-cell screen hits (AID 489026); assay type: functional, cell-based;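 also: cells exposed to compound about 14 hours before the viability readout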
# Large T antigen = Large T antigen (Simian virus 40, UniProt P03070); assay type: functional, Betapolyomavirus macacae;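 also: Confirmatory-stage PubChem screen for compounds that inhibit SV40 T antigen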
# [7] = molecular target: T2, Microphthalmia-associated transcription factor (Homo sapiens, UniProt O75030); assay: TRPM1 promoter luciferase signal decrease, dose response, MITF inhibitor project, cell-based, SK-MEL-5, cherry-picked, set 3 (AID 493073); assay type: functional
# T2 sequence (O75030 whole entry): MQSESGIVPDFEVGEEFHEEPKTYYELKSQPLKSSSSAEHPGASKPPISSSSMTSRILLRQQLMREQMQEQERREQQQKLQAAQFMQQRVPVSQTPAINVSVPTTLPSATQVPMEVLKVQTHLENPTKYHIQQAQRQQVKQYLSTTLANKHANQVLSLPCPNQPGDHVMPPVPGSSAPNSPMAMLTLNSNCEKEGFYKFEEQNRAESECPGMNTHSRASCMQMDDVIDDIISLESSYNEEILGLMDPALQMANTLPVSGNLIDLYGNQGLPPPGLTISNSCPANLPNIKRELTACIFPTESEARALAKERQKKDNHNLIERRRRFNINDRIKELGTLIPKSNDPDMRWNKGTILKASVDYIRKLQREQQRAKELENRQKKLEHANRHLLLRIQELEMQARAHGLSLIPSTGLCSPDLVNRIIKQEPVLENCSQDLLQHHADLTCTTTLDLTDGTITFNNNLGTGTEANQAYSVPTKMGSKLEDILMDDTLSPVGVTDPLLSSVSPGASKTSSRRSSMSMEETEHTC
# [8] = inhibitors of firefly luciferase expression or activity, dose response, H4 neuroglioma cells, luminescence (AID 1990); assay type: functional, cell-based
# [9] = HEp-2 cell cytotoxicity, dose response, cytotoxicity control for RSV inhibitor project, HTS (AID 2410); assay type: functional; settings: human respiratory syncytial virus
# [10] = inhibitors of SNCA 5'UTR-driven reporter translation, confirmation, H4 neuroglioma cells, luminescence (AID 1988); assay type: functional, cell-based
# [11] = Luminescence Cell-Based Dose Response HTS to Identify Inhibitors of 5'UTR Stem-Loop Driven Prion Protein mRNA Translation in H4 Neuroglioblastoma Cells. [Related pubchem assays: 1827 (Project Summary), 1813 (Primary HTS)]; assay type: functional
# INS1 = assay: beta cell apoptosis inhibitors, cytokine rescue, dose response, luminescence, retest (AID 449756); assay type: functional, cell-based; settings: Rattus norvegicus;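 also: cell death triggered by IL-1 beta plus TNF-alpha plus IFN-gamma mixture; protective hits raise ATP signal compared with cytokine alone wells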
# Cytochrome P450 3A4 = Cytochrome P450 3A4 (Homo sapiens, UniProt P08684);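 also: CYP3A4 tested as one member of a cytochrome P450 panel screen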
# Cytochrome P450 1A2 = molecular target: T3, Cytochrome P450 1A2 (Homo sapiens, UniProt P05177);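 also: PubChem cytochrome P450 panel assay, CYP1A2 panel member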
# T3 sequence (P05177 whole entry): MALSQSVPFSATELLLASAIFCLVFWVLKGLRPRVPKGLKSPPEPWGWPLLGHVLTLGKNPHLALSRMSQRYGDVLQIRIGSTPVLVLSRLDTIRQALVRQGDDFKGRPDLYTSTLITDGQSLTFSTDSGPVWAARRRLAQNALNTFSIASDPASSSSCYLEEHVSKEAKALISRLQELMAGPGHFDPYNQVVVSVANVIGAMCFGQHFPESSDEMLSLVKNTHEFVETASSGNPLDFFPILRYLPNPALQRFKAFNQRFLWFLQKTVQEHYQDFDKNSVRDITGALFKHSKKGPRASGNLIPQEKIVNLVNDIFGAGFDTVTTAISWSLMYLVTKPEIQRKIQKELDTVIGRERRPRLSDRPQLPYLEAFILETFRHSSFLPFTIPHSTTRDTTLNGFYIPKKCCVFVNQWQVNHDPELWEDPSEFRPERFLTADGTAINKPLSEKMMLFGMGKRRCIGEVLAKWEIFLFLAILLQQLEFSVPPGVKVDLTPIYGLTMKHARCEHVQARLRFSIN
# Cytochrome P450 2C19 = Cytochrome P450 2C19 (Homo sapiens, UniProt P33261); assay: Cytochrome panel assay with activity outcomes. Panel member name: p450-cyp2c19 Compounds with AC50 equal or less than 10 uM are considered active; assay type: functional
# [12] = inhibitors of clade B AD8 Env fusion, dose response, cell-based, cherry-pick (AID 652062); assay type: functional;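 also: luciferase signal from cell-cell fusion driven by HIV-1 clade B AD8 Env; potency is for inhibitors of fusion seen as a drop in luminescence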
# [13] = inhibitors of HIV Env-driven cell fusion, dose response, cherry-pick (AID 652057); assay type: functional, cell-based
# [14] = C. albicans growth with fluconazole, confirmation, fluorescence, retest (AID 2467); assay type: functional, cell-based
# [15] = NIH-3T3 fibroblast cytotoxicity, dose response, cytotoxicity control, cell-based, fluorescence, Alamar Blue, secondary assay (AID 2327); assay type: functional;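 also: NIH-3T3 mouse fibroblasts cultured with fluconazole at 8 µg/mL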
# [16] = molecular target: T4, Heat shock factor protein 1 (Mus musculus, UniProt P38532); assay: inhibition of MG132-induced HSE-luciferase signal, confirmation, cell-based, NIH3T3, luminescence, dose retest (AID 2382); assay type: functional;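 also: NIH3T3 fibroblasts with HSF1-driven luciferase reporter stressed by proteasome inhibitor MG132; luminescence from HSF1-driven luciferase expression after 8 hours of MG132 stress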
# T4 sequence (P38532 whole entry): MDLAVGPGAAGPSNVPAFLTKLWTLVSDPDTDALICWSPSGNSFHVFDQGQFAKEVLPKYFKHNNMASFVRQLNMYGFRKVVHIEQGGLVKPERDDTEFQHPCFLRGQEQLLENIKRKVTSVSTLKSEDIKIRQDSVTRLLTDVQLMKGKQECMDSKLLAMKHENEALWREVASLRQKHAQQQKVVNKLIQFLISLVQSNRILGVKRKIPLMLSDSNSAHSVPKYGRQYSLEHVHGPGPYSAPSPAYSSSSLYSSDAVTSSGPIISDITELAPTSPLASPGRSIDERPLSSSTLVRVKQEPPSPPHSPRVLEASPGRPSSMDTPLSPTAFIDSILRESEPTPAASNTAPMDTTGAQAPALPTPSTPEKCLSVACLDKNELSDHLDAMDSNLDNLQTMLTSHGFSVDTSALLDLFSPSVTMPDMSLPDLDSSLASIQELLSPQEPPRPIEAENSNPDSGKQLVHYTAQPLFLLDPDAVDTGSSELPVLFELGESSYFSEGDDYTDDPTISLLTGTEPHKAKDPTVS
# [17] = molecular target: T5, Rac GTPase-activating protein 1 (Homo sapiens, UniProt Q9H0H5); assay: MgcRacGAP GTPase-activating activity inhibitors, confirmation, biochemical, ADP Hunter fluorescence, primary and confirmatory (AID 624330); assay type: functional
# T5 sequence (Q9H0H5 whole entry): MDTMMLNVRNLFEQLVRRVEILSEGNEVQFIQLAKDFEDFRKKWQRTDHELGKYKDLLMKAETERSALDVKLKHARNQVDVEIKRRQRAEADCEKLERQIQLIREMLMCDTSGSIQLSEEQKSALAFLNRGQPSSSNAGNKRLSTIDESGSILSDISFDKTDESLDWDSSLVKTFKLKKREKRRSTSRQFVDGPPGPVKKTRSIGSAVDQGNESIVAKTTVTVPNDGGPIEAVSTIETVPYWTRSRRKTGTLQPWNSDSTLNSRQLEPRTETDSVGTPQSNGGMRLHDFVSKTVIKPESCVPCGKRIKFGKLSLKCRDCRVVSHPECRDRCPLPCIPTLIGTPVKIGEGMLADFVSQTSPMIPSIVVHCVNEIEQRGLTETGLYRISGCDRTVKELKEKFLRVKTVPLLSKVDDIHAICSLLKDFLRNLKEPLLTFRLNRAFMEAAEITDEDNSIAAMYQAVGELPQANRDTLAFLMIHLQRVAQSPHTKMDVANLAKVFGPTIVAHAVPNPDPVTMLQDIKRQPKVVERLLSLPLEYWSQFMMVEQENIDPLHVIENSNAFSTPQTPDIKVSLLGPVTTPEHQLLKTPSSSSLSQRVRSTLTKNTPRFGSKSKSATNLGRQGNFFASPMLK
# P388/ADR = assay: cells; assay type: functional; settings: Mus musculus
# SN12K1 = assay: cells; assay type: functional; settings: Homo sapiens
# T1 sequence (P11940 whole entry): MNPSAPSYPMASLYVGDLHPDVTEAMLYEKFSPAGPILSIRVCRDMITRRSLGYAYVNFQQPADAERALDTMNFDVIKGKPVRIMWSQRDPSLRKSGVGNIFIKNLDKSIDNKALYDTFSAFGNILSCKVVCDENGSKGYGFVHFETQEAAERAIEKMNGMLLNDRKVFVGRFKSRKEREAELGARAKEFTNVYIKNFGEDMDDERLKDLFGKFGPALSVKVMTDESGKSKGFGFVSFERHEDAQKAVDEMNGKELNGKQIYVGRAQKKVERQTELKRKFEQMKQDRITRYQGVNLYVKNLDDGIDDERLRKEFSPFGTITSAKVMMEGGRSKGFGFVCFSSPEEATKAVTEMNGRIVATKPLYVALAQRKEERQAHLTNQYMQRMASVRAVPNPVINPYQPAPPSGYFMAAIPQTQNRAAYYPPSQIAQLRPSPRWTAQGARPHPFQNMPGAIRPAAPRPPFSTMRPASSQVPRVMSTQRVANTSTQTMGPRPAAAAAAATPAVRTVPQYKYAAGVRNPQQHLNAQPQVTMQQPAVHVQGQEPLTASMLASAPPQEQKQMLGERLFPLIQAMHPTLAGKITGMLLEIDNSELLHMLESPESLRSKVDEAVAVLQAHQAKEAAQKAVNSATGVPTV
# Large T antigen, sequence (P03070 whole entry): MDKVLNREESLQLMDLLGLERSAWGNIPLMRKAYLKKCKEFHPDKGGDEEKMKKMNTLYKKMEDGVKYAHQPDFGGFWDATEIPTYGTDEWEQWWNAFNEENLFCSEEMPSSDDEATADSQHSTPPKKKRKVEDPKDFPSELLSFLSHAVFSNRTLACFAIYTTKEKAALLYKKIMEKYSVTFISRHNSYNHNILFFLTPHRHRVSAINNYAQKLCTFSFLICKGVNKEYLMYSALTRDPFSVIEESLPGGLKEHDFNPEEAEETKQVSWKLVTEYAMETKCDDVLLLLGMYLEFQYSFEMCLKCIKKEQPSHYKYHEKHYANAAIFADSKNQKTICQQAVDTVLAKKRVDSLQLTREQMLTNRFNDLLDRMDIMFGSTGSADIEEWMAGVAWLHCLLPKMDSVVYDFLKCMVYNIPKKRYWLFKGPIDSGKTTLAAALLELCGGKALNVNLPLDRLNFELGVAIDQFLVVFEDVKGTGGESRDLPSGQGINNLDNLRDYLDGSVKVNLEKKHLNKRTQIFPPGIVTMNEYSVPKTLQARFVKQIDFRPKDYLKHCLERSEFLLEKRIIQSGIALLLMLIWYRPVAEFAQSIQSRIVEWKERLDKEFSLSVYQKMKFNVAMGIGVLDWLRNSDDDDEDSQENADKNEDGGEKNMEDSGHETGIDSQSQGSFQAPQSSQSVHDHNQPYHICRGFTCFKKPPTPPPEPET
# Cytochrome P450 3A4, sequence (P08684 whole entry): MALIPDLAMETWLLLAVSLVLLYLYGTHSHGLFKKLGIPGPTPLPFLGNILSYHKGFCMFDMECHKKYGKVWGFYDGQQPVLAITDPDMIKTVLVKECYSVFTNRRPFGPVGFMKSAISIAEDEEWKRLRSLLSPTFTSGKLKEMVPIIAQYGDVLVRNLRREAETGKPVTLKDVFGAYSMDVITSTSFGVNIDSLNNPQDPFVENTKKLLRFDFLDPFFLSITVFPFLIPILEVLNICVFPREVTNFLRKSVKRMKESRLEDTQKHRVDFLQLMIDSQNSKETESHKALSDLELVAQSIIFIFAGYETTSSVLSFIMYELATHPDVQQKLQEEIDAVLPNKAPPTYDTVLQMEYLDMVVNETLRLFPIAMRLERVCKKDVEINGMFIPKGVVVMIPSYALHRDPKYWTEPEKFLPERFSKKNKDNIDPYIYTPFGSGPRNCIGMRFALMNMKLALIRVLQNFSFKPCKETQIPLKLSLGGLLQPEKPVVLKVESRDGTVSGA
# FAD-linked sulfhydryl oxidase ALR, sequence (P55789 whole entry): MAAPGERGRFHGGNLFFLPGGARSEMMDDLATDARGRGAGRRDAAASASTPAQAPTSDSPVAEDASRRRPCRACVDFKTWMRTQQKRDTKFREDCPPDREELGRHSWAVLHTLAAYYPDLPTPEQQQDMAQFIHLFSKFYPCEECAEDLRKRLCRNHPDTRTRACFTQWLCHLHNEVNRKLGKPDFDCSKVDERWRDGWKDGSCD
# Cytochrome P450 2C19, sequence (P33261 whole entry, the tested form may be a part): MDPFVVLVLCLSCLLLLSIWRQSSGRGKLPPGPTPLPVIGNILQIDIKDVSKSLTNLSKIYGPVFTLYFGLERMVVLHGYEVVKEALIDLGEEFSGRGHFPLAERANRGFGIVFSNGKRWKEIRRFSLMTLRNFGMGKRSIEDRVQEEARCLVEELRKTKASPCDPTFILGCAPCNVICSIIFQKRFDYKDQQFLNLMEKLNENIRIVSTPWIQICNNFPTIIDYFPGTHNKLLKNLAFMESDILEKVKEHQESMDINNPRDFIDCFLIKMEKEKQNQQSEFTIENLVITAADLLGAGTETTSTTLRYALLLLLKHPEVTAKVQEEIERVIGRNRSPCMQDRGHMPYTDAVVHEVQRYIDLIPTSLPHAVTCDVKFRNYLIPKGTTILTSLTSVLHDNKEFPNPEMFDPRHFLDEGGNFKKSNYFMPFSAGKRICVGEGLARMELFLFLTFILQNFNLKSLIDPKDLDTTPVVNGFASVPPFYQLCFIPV
compound,measurement,setting,value
COc1ccc(-n2ccnc(SCC(=O)NC3CCCC3)c2=O)cc1,IC50,[1],> 66 µM (inactive)
same,IC50,[2],> 66 µM (inactive)
COC(=O)c1cc2c(C)c(C)c3ccccn3c-2c1C(=O)OC,IC50,H9c2,47.9 µM (inactive)
same,IC50,[1],> 66 µM (inactive)
same,IC50,[2],> 66 µM (inactive)
O=C1CCC(C(=O)N2CCCC(Nc3ccc(F)cc3)C2)=NN1 (stereo not drawn),AC50,[3],24.8 µM (active)
COC(=O)C1C(=O)N2CCCSC2=C(C#N)C1c1cccs1 (stereo not drawn),EC50,cells [4],> 350 µM (not active)
same,EC50,cells [5],> 350 µM (not active)
Cc1noc(C)c1COc1ccc(C(=O)NNC(=O)c2ccccc2F)cc1,IC50,[6],> 80 µM (inactive)
CCN(CCNC(=O)Cn1cc2c(n1)CCCC2)c1ccccc1,AC50,[3],2.46 µM (active)
Nc1ncc(-c2ccccc2)c(-c2ccc(O)cc2O)n1,AC50,[3],3.66 µM (active)
CN(C)C(=O)c1c(-c2ccccc2)oc2ccc(O)cc12,IC50,Large T antigen,46.6 µM (active)
CN(C)c1ccc(NS(=O)(=O)c2cccc(Cl)c2)cc1,IC50,Large T antigen,28.7 µM (active)
COc1cccc(N2CCN(CC(=O)NC(C)c3ccccc3)CC2)c1 (stereo not drawn),AC50,[3],2.02 µM (active)
Cc1ccc(NC(=O)C2CCN(S(=O)(=O)c3c(C)noc3/C=C/c3ccco3)CC2)nc1,AC50,[7],5.56 µM (active)
Cc1ccc(N2C(=O)CC(Sc3ccccc3C(=O)O)C2=O)c([N+](=O)[O-])c1 (stereo not drawn),IC50,[1],> 66 µM (inactive)
same,IC50,[2],> 66 µM (inactive)
COc1ccc(N2CCN(c3ccc(N4C(=O)CC(C)C4=O)cc3[N+](=O)[O-])CC2)cc1 (stereo not drawn),EC50,cells [4],41.1 µM (active)
same,EC50,cells [5],> 350 µM (not active)
COc1cc(/C=C(\C#N)c2nc3ccccc3n2C)cc(OC)c1O,IC50,Large T antigen,9.81 µM (active)
Cc1ccc(C)c(-c2nc3ccc(N)cc3[nH]2)c1,IC50,Large T antigen,83.7 µM (active)
CCO[C@H]1OC(C(=O)Nc2ccccc2)=C[C@@H](c2ccc(Br)cc2)[C@@H]1CCCO,EC50,[8],> 120 µM (not active)
same,CC50,[9],17.6 µM (active)
same,EC50,[10],> 120 µM (not active)
same,EC50,[11],> 120 µM (not active)
COc1ccc(C2=CC(c3ccc(F)cc3)n3nnnc3N2)cc1 (stereo not drawn),IC50,[1],> 66 µM (inactive)
same,IC50,[2],> 66 µM (inactive)
Cn1ncc2c(N3CCN(c4ccc(Cl)c(Cl)c4)CC3)ncnc21,IC50,[6],> 80 µM (inactive)
same,AC50,INS1,2.55 µM (active)
c1ccc(COC2CCCN(Cc3nc(-c4cccs4)no3)C2)nc1 (stereo not drawn),IC50,[1],> 66 µM (inactive)
same,IC50,[2],> 66 µM (inactive)
CCCC(=O)Nc1nc2n(n1)C(c1ccccc1)CC(=O)N2 (stereo not drawn),AC50,Cytochrome P450 3A4,inconclusive
COc1cccc(-n2nc(-c3ccnn3-c3ccccc3)c(=O)n(C)c2=O)c1,EC50,[8],25.3 µM (active)
same,EC50,[10],> 120 µM (not active)
same,EC50,[11],> 120 µM (not active)
CC(C)c1ccc(S(=O)(=O)Nc2ccc(O)c(Sc3nc[nH]n3)c2)cc1,AC50,[3],1.49 µM (active)
CN(C)Cc1ccccc1Sc1ccc(O)cc1O,AC50,[3],1.78 µM (active)
O=C(Nc1cccc(F)c1)N1CC2(CCN(C(=O)Oc3ccccc3)CC2)C1,AC50,Cytochrome P450 1A2,12.6 µM (inconclusive)
same,AC50,Cytochrome P450 3A4,inconclusive
COc1ccc(Sc2nc(-c3ccccc3)ncc2OC)cc1,EC50,[8],18.3 µM (active)
same,EC50,[10],16 µM (active)
same,EC50,[11],> 120 µM (not active)
CSc1nsc(SCC(=O)NCc2ccccc2)n1,IC50,[1],> 66 µM (inactive)
same,IC50,[2],> 66 µM (inactive)
CCN1CCCC1CNC(=O)C(=O)Nc1ccc(OC)cc1 (stereo not drawn),AC50,Cytochrome P450 2C19,inconclusive
same,AC50,Cytochrome P450 3A4,inconclusive
CCC(CC)C(=O)c1c[nH]c(C(=O)NCCCN2CCOCC2)c1,AC50,Cytochrome P450 1A2,25.1 µM (inconclusive)
same,AC50,Cytochrome P450 3A4,inconclusive
COc1ccc(S(=O)(=O)N(C)C[C@@H]2Oc3ccc(NC(=O)Nc4ccc5c(c4)OCO5)cc3C(=O)N([C@H](C)CO)C[C@@H]2C)cc1,AC50,[12],3.09 µM (active)
same,AC50,[13],2.3 µM (active)
COc1cccc(/C=N/NC(=O)c2nc(-c3ccccc3)cc(-c3ccccc3)n2)c1O,EC50,[14],1.54 µM (active)
same,EC50,cells [4],86.6 µM (active)
same,EC50,[15],> 150 µM (inactive)
same,EC50,cells [5],12.8 µM (active)
COc1ccc(NCC(=O)N/N=C/C2CCCCC2)cc1,AC50,[3],4.57 µM (active)
CCN1CCN(/C=N/c2nc3c(s2)CCCC3)CC1,AC50,[7],6.42 µM (active)
same,EC50,[16],< 0.16 µM (active)
same,EC50,[10],7.71 µM (active)
same,EC50,[11],8.93 µM (active)
O=C1C=C(Nc2ccc(O)cc2)CC(c2ccco2)C1 (stereo not drawn),IC50,[17],19.6 µM (active)
same,IC50,Large T antigen,9.14 µM (active)
Cc1[nH]c(=O)[nH]c(=O)c1N(CCF)CCCl [FLUORODOPAN],GI50,P388/ADR,330 µM (inactive)
same,GI50,SN12K1,249 µM (inactive)
